Patent US8828950B2, “Caspase inhibitors in the treatment of infection-associated preterm delivery” (Cedars-Sinai Medical Center, priority 2007, dated 2014)
Entries after “also recorded” stand apart in the source; their conditions may differ. Residues, ends and D or L forms follow the SMILES beside them. *: point of attachment. Cbz = O=C(OCc1ccccc1)*; CH2F = FC*

What was measured:
[1] = tested on: primary human trophoblasts and fibroblasts; conditions: in vitro pretreatment; Equils et al., 2006; cited from earlier work
[2] = tested on: pregnant mice injected with LPS; assay: LPS-induced pup mortality/abortion in pregnant Cox2/luciferase mice (bioluminescence imaging); type: in vivo, mouse; conditions: for pup (fetal) mortality / abortion after LPS: 0.25 mg ip 5-30 minutes prior to each ip LPS injection, 14 day pregnant mouse
From the text: Therefore, the use of caspase inhibitors confers a protective effect not seen by merely controlling infection through the use of antibiotics. As one of skill in the art will realize that the murine model can provide a guide to expected outcomes in human pregnancy, it is believed that caspase inhibitor treatment will be effective in the treatment of pregnant women with intrauterine infection so as to prevent preterm delivery and improve pregnancy outcome. This is a novel mammalian model for the improvement of pregnancy outcome.
Our experimental test method is based on the use of a mouse model in which inflammation (as assessed by Cox2 promoter activation) is detected optically by using a transgenic animal in which activation of the promoter results in synthesis of luciferase. When luciferin is subsequently injected, the presence of luciferase is detected by a sensitive camera as the production of light. The detected inflammation is indicative of the infection caused by the LPS injection.
In FIG. 1, pregnant mice are imaged. The mice were first mated with Cox2/luciferase males so that the pups would be positive for the Cox2/luciferase construct. The mice were treated with LPS which is normally produced by bacteria and results in inflammation. We injected pregnant mice with 0.1 microgram/ml LPS intraperitoneally (ip) for the control mice 0-24 hours (using a 2, 4, 6, 12 hour time course) prior to the imaging. The resulting inflammation causes the upregulation of Cox2 promoter in the pups resulting in the synthesis of luciferase. […] The treatment mice were given 0.25 mg ip of the pancaspase inhibitor 5-30 minutes prior to each LPS injection.
In the case of the control mouse (right-hand side of FIG. 1) inflammation results in the abortion of the pups (no bioluminescence detected). […] Thus, in the case of inflammation resulting from infection (as is common in cases of preterm delivery in humans) effective treatment includes antibiotic to reduce or eliminate the infection and caspase inhibitor to prevent preterm delivery.

[3] = tested on: pregnant CD1 mice injected with HK-GBS; assay: HK-GBS-induced preterm delivery in day 14.5 pregnant CD1 mice; type: in vivo, mouse
Description: To assess whether caspase inhibition prevented HK-GBS-induced preterm delivery, unanesthetized day 14.5 pregnant CD1 mice (Harlan Laboratories, Madison, Wis.), which breed more effectively than inbred C57BL/6J mice, were pre-treated intraperitoneally with PBS, DMSO or the pancaspase inhibitor Z-VAD-FMK (10 mg/kg) 30 minutes prior to intraperitoneal injection with either 10^9 HK-GBS bacteria or medium. There were no differences in delivery outcomes following intraperitoneal injection with GBS whether or not animals were pretreated with either PBS or DMSO (diluents for the caspase inhibitor). Therefore these separate control pre-treatments are combined for the analyses.
Chi-square analysis was done to assess the effect of Z-VAD-FMK pretreatment on HK-GBS-induced preterm delivery.
Based upon that observation, we hypothesized that the generalized inhibition of caspases would prevent microbial antigen-induced preterm delivery in the mouse pregnancy model. In order to test this hypothesis we pre-treated day 14.5 pregnant CD1 mice either with Z-VAD-FMK (10 mg/kg dissolved in DMSO/PBS) or with medium intraperitoneally 30 minutes prior to intraperitoneal HK-GBS injection.

## COC(=O)C[C@H](NC(=O)[C@H](C)NC(=O)[C@@H](NC(=O)OCc1ccccc1)C(C)C)C(=O)CF [Z-VAD-FMK, carbobenzoxy-valyl-alanyl-aspartyl-[O-methyl]-fluoromethylketone] (Cbz-Val-Ala-Asp(OMe)-CH2F)
[1]
  cHSP60-induced apoptosis: prevented Chlamydia heat shock protein (cHSP60)-induced apoptosis
[2]
  pup (fetal) mortality / abortion after LPS: prevents pup mortality; also recorded: the pups do not abort
[2]; listed as Z-VAD FMK
  pup (fetal) mortality / abortion after LPS: reduces fetal mortality
[2]; listed as pancaspase inhibitor
  pup (fetal) mortality / abortion after LPS: maintenance of pregnancy
[2]; 0.25 mg ip prior to ip LPS injection
  inflammation as assessed by Cox2 promoter activation (bioluminescence): continued inflammation; also recorded: does not prevent inflammation
[3]; 10 mg/kg ip 30 minutes prior to ip 10^9 HK-GBS, 1 of n = 6, GBS alone 12 (86%) of n = 14, p value 0.0072
  Delivery <18 hr (%): 1 (17%)
[3]; 10 mg/kg ip 30 minutes prior to ip 10^9 HK-GBS, 2 of n = 6, GBS alone 0 of n = 14, p value 0.079
  Delivery 18-24 hrs (%): 2 (33%)
[3]; 10 mg/kg ip 30 minutes prior to ip 10^9 HK-GBS, 3 of n = 6, GBS alone 12 (86%) of n = 14, p value 0.13
  Preterm Delivery (<24 hours): 3 (50%)
[3]; ip pre-treatment 10 mg/kg, ip HK-GBS
  effect on HK-GBS-induced preterm delivery: delayed i.p. HK-GBS-induced preterm delivery; also recorded: significantly delayed preterm delivery at 18 hours
